Assay results reported in patent US5278146A, “CRF analogs” (The Salk Institute for Biological Studies, priority 1992, dated 1994).
pEC50: −log10 of the molar value. Where no end group is shown, it is not given here. [ ]: non-standard residue; d: D form. Nle = CCCC[C@H](N)C(=O)O; Nva = CCC[C@H](N)C(=O)O

Legend:
[1] = In vivo testing (procedure of C. Rivier et al., Science 218, 377): duration of potency and blood pressure; conditions: for Lowering of blood pressure: administered peripherally (where stated)
[2] = test system: cultured rat pituitary cells; experiment: Secretion of ACTH and β-endorphin by cultured rat pituitary cells; assay type: cell-based; conditions: for Stimulation of the secretion of ACTH and β-END-LI: general procedure of Example III
Experimental: The synthetic peptide [D-Glu^20 ]-oCRF is examined for its effects on the secretion of ACTH and β-endorphin vitro and was also in vivo. The potency of synthetic [D-Glu^20 ]-oCRF to stimulate the secretion of ACTH and β-endorphin by cultured rat pituitary cells is measured using the procedure as generally set forth in Endocrinology, 91, 562 (1972) and compared against synthetic oCRF.

[3] = test system: ACTH and β-endorphin-like activities (β-END-LI); conditions: in vitro and in vivo; cited from earlier work
[4] = injected peripherally, e.g. intravenously; cited from earlier work

## CC[C@H](C)[C@H](NC(=O)[C@@H](NC(=O)[C@H](CC(=O)O)NC(=O)[C@H](CC(C)C)NC(=O)[C@H](CC(C)C)NC(=O)[C@H](CC(C)C)NC(=O)[C@H](CCCNC(=N)N)NC(=O)[C@H](CC(N)=O)NC(=O)[C@H](CC(N)=O)NC(=O)[C@H](C)NC(=O)[C@H](C)NC(=O)[C@H](CCC(N)=O)NC(=O)[C@H](CCC(=O)O)NC(=O)[C@H](CCCCN)NC(=O)[C@H](CCC(=O)O)NC(=O)[C@H](CCCCN)NC(=O)[C@H](CCC(=O)O)NC(=O)[C@H](CCC(N)=O)NC(=O)[C@H](CCCCN)NC(=O)[C@H](CCCNC(=N)N)NC(=O)[C@H](C)NC(=O)[C@@H](CCC(=O)O)NC(=O)[C@@H](NC(=O)[C@H](CCSC)NC(=O)[C@H](CCCCN)NC(=O)[C@H](CCCNC(=N)N)NC(=O)[C@H](CC(C)C)NC(=O)[C@H](CC(C)C)NC(=O)[C@H](CCC(=O)O)NC(=O)[C@@H](Cc1ccccc1)NC(=O)[C@H](CO)NC(=O)[C@H](CC(C)C)NC(=O)[C@H](CC(=O)O)NC(=O)[C@@H](NC(=O)[C@H](CO)NC(=O)[C@@H](NC(=O)[C@@H]1CCCN1C(=O)[C@@H]1CCCN1C(=O)CNC(=O)[C@@H]1CCC(=O)N1)[C@@H](C)CC)[C@@H](C)CC)[C@@H](C)CC)[C@@H](C)CC)C(N)=O
[1]
  Lowering of blood pressure: very significant lowering of blood pressure
[2]
  Stimulation of the secretion of ACTH and β-END-LI: stimulates the secretion of ACTH and β-END-LI

## CCCC[C@H](NC(=O)[C@@H](CCC(=O)O)NC(=O)[C@H](CC(C)C)NC(=O)[C@@H](NC(=O)[C@H](CCC(=O)O)NC(=O)[C@H](CCCNC(=N)N)NC(=O)[C@H](CC(C)C)NC(=O)[C@H](CC(C)C)NC(=O)[C@H](Cc1c[nH]cn1)NC(=O)[C@H](Cc1ccccc1)NC(=O)[C@@H](NC(=O)[C@H](CC(C)C)NC(=O)[C@H](CC(=O)O)NC(=O)[C@H](CC(C)C)NC(=O)[C@H](CO)NC(=O)[C@@H](NC(=O)[C@@H]1CCCN1C(=O)[C@@H]1CCCN1C(=O)[C@H](CCC(=O)O)NC(=O)[C@H](CCC(N)=O)NC(=O)[C@@H](N)CO)[C@@H](C)CC)[C@@H](C)O)C(C)C)C(=O)N[C@H](C(=O)N[C@@H](CCCCN)C(=O)N[C@@H](C)C(=O)N[C@@H](CC(=O)O)C(=O)N[C@@H](CCC(N)=O)C(=O)N[C@@H](CC(C)C)C(=O)N[C@@H](C)C(=O)N[C@@H](CCC(N)=O)C(=O)N[C@@H](CCC(N)=O)C(=O)N[C@@H](C)C(=O)N[C@H](Cc1c[nH]cn1)C(=O)N[C@@H](CO)C(=O)N[C@@H](CC(N)=O)C(=O)N[C@@H](CCCNC(=N)N)C(=O)N[C@@H](CCCCN)C(=O)N[C@@H](CC(C)C)C(=O)N[C@@H](CC(C)C)C(=O)N[C@@H](CC(=O)O)C(=O)N[C@H](C(=O)N[C@@H](C)C(N)=O)[C@@H](C)CC)[C@@H](C)O [[D-Glu^20, Nle^21, D-His^32]-oCRF]
[1]
  Lowering of blood pressure: very significant lowering of blood pressure
[2]
  Stimulation of the secretion of ACTH and β-END-LI: stimulates the secretion of ACTH and β-END-LI

## CCCC[C@H](NC(=O)[C@@H](CCC(=O)O)NC(=O)[C@H](CC(C)C)NC(=O)[C@@H](NC(=O)[C@H](CCC(=O)O)NC(=O)[C@H](CCCNC(=N)N)NC(=O)[C@H](CC(C)C)NC(=O)[C@H](CC(C)C)NC(=O)[C@H](Cc1c[nH]cn1)NC(=O)[C@H](Cc1ccccc1)NC(=O)[C@@H](NC(=O)[C@H](CC(C)C)NC(=O)[C@H](CC(=O)O)NC(=O)[C@H](CC(C)C)NC(=O)[C@H](CO)NC(=O)[C@@H](NC(=O)[C@@H]1CCCN1C(=O)[C@@H]1CCCN1C(=O)[C@H](CCC(=O)O)NC(=O)[C@H](CCC(N)=O)NC(=O)[C@@H](N)CO)[C@@H](C)CC)[C@@H](C)O)C(C)C)C(=O)N[C@H](C(=O)N[C@@H](CCCCN)C(=O)N[C@@H](C)C(=O)N[C@@H](CC(=O)O)C(=O)N[C@@H](CCC(N)=O)C(=O)N[C@@H](CC(C)C)C(=O)N[C@@H](C)C(=O)N[C@@H](CCC(N)=O)C(=O)N[C@@H](CCC(N)=O)C(=O)N[C@@H](C)C(=O)N[C@@H](Cc1c[nH]cn1)C(=O)N[C@@H](CO)C(=O)N[C@@H](CC(N)=O)C(=O)N[C@@H](CCCNC(=N)N)C(=O)N[C@@H](CCCCN)C(=O)N[C@@H](CC(C)C)C(=O)N[C@@H](CC(C)C)C(=O)N[C@@H](CC(=O)O)C(=O)N[C@H](C(=O)N[C@@H](C)C(N)=O)[C@@H](C)CC)[C@@H](C)O [[D-Glu^20, Nle^21]-oCRF]
[1]
  Lowering of blood pressure: very significant lowering of blood pressure
[2]
  Stimulation of the secretion of ACTH and β-END-LI: stimulates the secretion of ACTH and β-END-LI

## CC[C@H](C)[C@H](NC(=O)[C@H](CC(=O)O)NC(=O)[C@H](CC(C)C)NC(=O)[C@H](CC(C)C)NC(=O)[C@H](CCCCN)NC(=O)[C@H](CCCNC(=N)N)NC(=O)[C@H](CC(N)=O)NC(=O)[C@H](CO)NC(=O)[C@H](Cc1c[nH]cn1)NC(=O)[C@H](C)NC(=O)[C@H](CCC(N)=O)NC(=O)[C@H](CCC(N)=O)NC(=O)[C@H](C)NC(=O)[C@H](CC(C)C)NC(=O)[C@H](CCC(N)=O)NC(=O)[C@H](CC(=O)O)NC(=O)[C@H](C)NC(=O)[C@H](CCCCN)NC(=O)[C@@H](NC(=O)[C@H](CCSC)NC(=O)[C@@H](CCC(=O)O)NC(=O)[C@H](CC(C)C)NC(=O)[C@@H](NC(=O)[C@H](CCC(=O)O)NC(=O)[C@H](CCCNC(=N)N)NC(=O)[C@H](CC(C)C)NC(=O)[C@H](CC(C)C)NC(=O)[C@H](Cc1c[nH]cn1)NC(=O)[C@H](Cc1ccccc1)NC(=O)[C@@H](NC(=O)[C@H](CC(C)C)NC(=O)[C@H](CC(=O)O)NC(=O)[C@H](CC(C)C)NC(=O)[C@H](CO)NC(=O)[C@@H](NC(=O)[C@@H]1CCCN1C(=O)[C@@H]1CCCN1C(=O)[C@H](CCC(=O)O)NC(=O)[C@H](CCC(N)=O)NC(=O)[C@@H](N)CO)[C@@H](C)CC)[C@@H](C)O)C(C)C)[C@@H](C)O)C(=O)N[C@@H](C)C(N)=O [[D-Glu^20]-oCRF]
[1]
  Lowering of blood pressure: significant lowering of blood pressure
[1]; in vivo
  Duration of potency in vivo: longer duration of potency
[2]; cultured rat pituitary cells, read-out: Concentration at which half-maximal responses are observed (ACTH and β-endorphin secretion)
  pEC50: ~9.77
[2]; in vitro, compared against synthetic oCRF
  Potency relative to the native hormone: about twice as potent as the native hormone
[2]; maximal (1-5 nM) concentrations
  Secretory response to maximal concentrations: at a plateau level

## Bz-Ser-Leu-Asp-Leu-Thr-D-Phe-His-Leu-Leu-Arg-Glu-Val-Leu-Glu-Nle-Ala-Arg-Ala-Glu-Gln-Leu-Ala-Gln-Gln-Ala-D-His-Ser-Asn-Arg-Lys-Leu-Nle-Glu-Ile-Ile-NH2
[1]
  Lowering of blood pressure: very significant lowering of blood pressure
[2]
  Stimulation of the secretion of ACTH and β-END-LI: stimulates the secretion of ACTH and β-END-LI

## H-D-Pro-Pro-Ile-Ser-Leu-Asp-Leu-Thr-D-Phe-His-Leu-Leu-Arg-Glu-Val-Leu-Glu- Nle-Ala-Arg-Ala-Glu-Gln-Leu-Ala-Gln-Gln-Ala-His-Ser-Asn-Arg-Lys-CML-Nle-Ile-Ile-NH2
[1]
  Lowering of blood pressure: very significant lowering of blood pressure
[2]
  Stimulation of the secretion of ACTH and β-END-LI: stimulates the secretion of ACTH and β-END-LI

## H-SQEPPISLDLTFHLLREVL[dE][Nle]TK[dA]DQLAQQAHSNRKL[Nle]DIA-NH2 [[D-Glu^20, D-Ala^24, Nle^21,38]-oCRF]
[1]
  Lowering of blood pressure: very significant lowering of blood pressure
[2]
  Stimulation of the secretion of ACTH and β-END-LI: stimulates the secretion of ACTH and β-END-LI

## H-SQEPPISLDLTFHLLRE[Nle]L[dE][Nle]AKAEQEAEQA[dH]LNRLLLEEA-NH2 [[Nle^18,21, D-Glu^20, D-His^32]-AHC]
[1]
  Lowering of blood pressure: very significant lowering of blood pressure
[2]
  Stimulation of the secretion of ACTH and β-END-LI: stimulates the secretion of ACTH and β-END-LI

## H-SQEPPISLDLT[dF]HLLREML[dE]RAKAEQEAEQAALNRLLLEEA-NH2 [[D-Phe^12, D-Glu^20, Arg^21]-AHC]
[1]
  Lowering of blood pressure: very significant lowering of blood pressure
[2]
  Stimulation of the secretion of ACTH and β-END-LI: stimulates the secretion of ACTH and β-END-LI

## H-SQEPPISLDLT[dF]HLLRE[Nle]LE[Nle]AK[dA]EQEAEQAALNRLLLEEA-NH2 [[D-Phe^12, Nle^18,21, D-Ala^24]-AHC]
[1]
  Lowering of blood pressure: very significant lowering of blood pressure
[2]
  Stimulation of the secretion of ACTH and β-END-LI: stimulates the secretion of ACTH and β-END-LI

## H-SQ[dY]PPISLDLTFHLLRE[Nle]L[dE][Nva]AK[dA]EQEAEQAALNRLLLEEA-NH2
[1]
  Lowering of blood pressure: very significant lowering of blood pressure
[2]
  Stimulation of the secretion of ACTH and β-END-LI: stimulates the secretion of ACTH and β-END-LI

## H-Ser-Gln-Glu-Pro-Pro-Ile-Ser-Leu-Asp-Leu-Thr-D-Phe-Glu-Leu-Leu-Arg-Glu-Met-T-Glu-Ile-Ala-Lys-Ala-Glu-Gln-Glu-Ala-Glu-Gln-Ala-Ala-Leu-Asn-Arg-Lys-Tyr-Leu-Glu-Glu-Val-NH2
[1]
  Lowering of blood pressure: very significant lowering of blood pressure
[2]
  Stimulation of the secretion of ACTH and β-END-LI: stimulates the secretion of ACTH and β-END-LI

## H-Ser-Glu-Glu-Pro-Pro-Ile-Ser-Leu-Asp-Leu-Thr-D-Phe-Glu-Lue-Leu-Arg-Glu-Nle-Leu-Glu-Met-Glu-Orn-Ala-Glu-Lys-Glu-Ala-Glu-Gln-Ala-Ala-Leu-Asn-Arg-Leu-Leu-Leu-Glu-Glu-Ala-NH2
[1]
  Lowering of blood pressure: very significant lowering of blood pressure
[2]
  Stimulation of the secretion of ACTH and β-END-LI: stimulates the secretion of ACTH and β-END-LI

## H-pGlu-Glu-Pro-Pro-Ile-Ser-Leu-Asp-:-Thr-D-Phe-His-Leu-Leu-Arg-Glu-Val-Leu-Glu-Met-Ala-Arg-D-Ala-Glu-Gln-Leu-Ala-Gln-Gln-Ala-His-Ser-Asn-Arg-Lys-Leu- Met-Glu-Ile-Ile-NH2 [[pGlu^2, D-Phe^12, D-Ala^24]-rCRF(2-41)]
[1]
  Lowering of blood pressure: very significant lowering of blood pressure
[2]
  Stimulation of the secretion of ACTH and β-END-LI: stimulates the secretion of ACTH and β-END-LI

## rCRF: rat CRF, homologous hentetracontapeptide of U.S. Pat. No. 4,489,163; same formula as human CRF (SEEPPISLDLTFHLLREVLEMARAEQLAQQAHSNRKLMEII; ends and bridges not checked; UniProt P01143 145-185, looked up)
[3]
  Stimulation of ACTH and β-endorphin secretion / β-END-LI (background): stimulate ACTH and β-endorphin-like activities
[4]
  Lowering of blood pressure (background): substantially lower blood pressure
